From patent publication US20160102074A1, “SUBSTITUTED AMIDE COMPOUNDS” (PFIZER INC., priority 2014, published 2016)

Experiments:
[1] = Human hepatocyte in vitro liver metabolism assay (HHep); type: in vitro ADME; conditions: cryopreserved human hepatocytes, 0.5 million viable cells per mL, 37° C.
Text: In particular, the human intestinal S9 fraction in vitro stability assay (HInt) and human hepatocyte in vitro liver metabolism assay (HHep) provide important information regarding the clearance and metabolic activation of these compounds. The human intestinal S9 fraction in vitro stability assay provides a surrogate measure of compound metabolism as it travels across the gut wall; compounds with low CLint values more likely to enter the portal vein and be exposed to the liver. Likewise, the human hepatocyte in vitro liver metabolism assay provides a surrogate measure of compound metabolism when exposed to liver; compounds with high CLint values are more likely to be metabolically activated. For compounds such as prodrugs that release an active species on metabolic activation, high CLint values in human hepatocytes are desirable. Active compounds released in this way inhibit PCSK9 and show improved atherosclerotic properties by increased exposure of the active metabolite in the liver.
Human Hepatocyte In Vitro Liver Metabolism Assay (HHep)
In order to determine the rate of metabolism leading to conversion of prodrug into active drug form, experiments utilizing human hepatocytes were performed. Hepatocytes are an ideal in vitro system to monitor hepatic metabolism since these intact cells contain all the hepatic enzymes found in vivo, including phase I enzymes (such as CYPs, aldehyde oxidases, esterases and MAOs) and phase II enzymes (such as UDP-glucuronyltransferases and sulfotransferases). The assay utilizes isolated hepatocytes from human donors incubated with the compound of interest in conditions mimicking physiological conditions where the metabolic stability of the compound is investigated. The experimental protocol is as follows. Vials of cryopreserved human hepatocytes (stored in liquid nitrogen until used for testing) were thawed in a water bath (37 to 40° C.) until nearly thawed, transferred to a conical tube, resuspended by inversion and subsequently centrifuged at 50-90 g at room temperature for 5 min. The supernatant was then discarded and the pellet loosened by gently tapping the end of the conical tube. William's E media was then added to achieve the desired final cell density (0.5 million viable cells per mL), and the hepatocytes were then resuspended in this fresh media. The viable cell count was then determined using the trypan blue exclusion method where a minimum viability of 70% was obtained. At this point, new molecular entities (NME's) were prepared for testing. In brief, the NME was diluted with DMSO such that final incubation concentration of NME was […] and final DMSO content was 0.1%. Assays were conducted in a 384-well format at 37° C. in an incubator held at 95% air to 5% CO2 at 95% relative humidity. The per-well incubation total incubation volume was 20 μL including hepatocytes and NME. The assay was performed using 7 hepatocyte plates where the plates were designated as sampling times 0, 15, 30, 60, 120 and 240 min and include hepatocytes and NME, and a no NME control plate with hepatocytes that was taken at 240 min. Two additional no hepatocyte containing control plates were prepared and subsequently sampled at 0 and 240 min, respectively, and were identical to the hepatocyte containing plates with respect to NME and media composition. The incubations were stopped using acetonitrile and prepared for analytical testing using liquid chromatography mass-spectrometry (LC/MS) detection. Each NME was optimized for LC/MS analytical conditions. A disappearance curve was generated from the sample time point analytical peak areas and compared to control plate results (control plates allow artifacts such as non-hepatocyte mediated decline (e.g., media/condition instability for the NME) to be determined). The slope of the disappearance curve was used to determine metabolic stability expressed CLint. […]

human PCSK9 = assay: PCSK9 AlphaLISA assay, PCSK9 lowering in WT7 cells; conditions: WT7 cells (Huh7 stably over-expressing human PCSK9), secreted PCSK9 by AlphaLISA, overnight incubation (16-24 h), top concentration 20 μM; read-out: Cell Based PCSK9 IC50
Text: PCSK9 Lowering in WT7 Cells
An in-vitro AlphaLISA assay (Perkin Elmer) was developed in order to quantitate the level of PCSK9 secreted into the cell culture media following compound treatment. To detect and measure PCSK9 protein a mouse monoclonal anti-human PCSK9 antibody was coupled to AlphaLISA acceptor beads by an external vendor (Perkin Elmer) and a second rabbit monoclonal anti-human PCSK9 antibody with an epitope distinct from that of the acceptor beads was biotinylated using the EZ link NHS-LC-LC-Biotin kit (Life Technologies #21338). Streptavidin coated-donor beads (Perkin Elmer) are also included in the assay mixture which then binds the biotinylated anti-PCSK9 antibody and in the presence of PCSK9 this donor complex and acceptor beads are brought into close proximity. Upon excitation of the donor beads at 680 nm singlet oxygen molecules are released that trigger an energy transfer cascade within the acceptor beads resolving as a single peak of light emitted at 615 nm. The ability of compound to modulate PCSK9 protein levels in conditioned media by AlphaLISA was assessed in the human hepatocellular carcinoma cell line Huh7, stably over-expressing human PCSK9. This cell line, termed WT7, was established by transfecting Huh7 cells with an in-house modified pcDNA 3.1 (+) Zeo expression vector (Life Technologies) containing the full-length human PCSK9 sequence (NCBI reference identifier, NM_174936.3, where coding sequence start annotated at position 363) and a c-terminal V5 and 6×-His tag. Following plasmid transfection the stable WT7 clone was identified and maintained under Zeocin selection. Compound screening was performed in 384-well plates where WT7 cells were plated at a density of 7500 cells per well in 20 μL of tissue culture media containing compound in an eleven point, 0.5 log dilution format at a high treatment concentration of 20 μM in a final volume of 0.5% DMSO. In additional to these test compound conditions each screening plate also included wells that contained 20 μM puromycin as a positive assay control defined as high percent effect, HPE, as well as wells containing media in 0.5% DMSO as a negative treatment control defined as zero percent effect, ZPE. After overnight compound incubation (16-24 h) the tissue culture media was collected and an aliquot from each sample was transferred to individual wells of a 384-well white Optiplate (Perkin Elmer). The coupled antibodies and donor beads were added to the assay plates in a buffer composed of 30 mM Tris pH 7.4, 0.02% Tween-20 and 0.02% Casein. Anti-PCSK9 acceptor beads (final concentration of 10 μg/mL) and anti-PCSK9 biotinylated antibody (final concentration of 3 nM) were added and incubated for 30 minutes at room temperature followed by the addition of the streptavidin donor beads (final concentration 40 μg/mL) for an additional 60 minutes. Additionally a standard curve was generated where AlphaLISA reagents were incubated in wells spiked with recombinant human PCSK9 diluted in tissue culture media from 5000 ng/mL to 0.6 ng/mL. Following incubation with AlphaLISA reagents plates were read on an EnVision (Perkin Elmer) plate reader at an excitation wavelength of […] and emission/detection wavelength of […]. To determine compound IC50 the data for HPEand ZPEcontrol wells were first analyzed and the mean, standard deviation and Z prime calculated for each plate. The test compound data were converted into percent effect, using the ZPE and HPE controls as 0% and 100% activity, respectively. The equation used for converting each well reading into percent effect was:
IC50 was then calculated and reported as the midpoint in the percent effect curve in molar units and the values are reported under the Cell Based PCSK9 IC50 (μM) column header within Table 2 Biological Data. […]

For `CCOC(=O)O[C@@H](C)n1nnnc1-c1c(-c2ccc(C(=O)N(c3ncccc3C)[C@@H]3CCCNC3)cc2F)cnn1C` [Example 8, ethyl (S)-1-{5-[4-(4-{(3-methylpyridin-2-yl)[(3R)-piperidin-3-yl]carbamoyl}-2-fluorophenyl)-1-methyl-1H-pyrazol-5-yl]-1H-tetrazol-1-yl}ethyl carbonate], the “HHep CLint” value [1] was 51.3 μL/min/mil and the IC50 (human PCSK9) was greater than 20 µM.
In the case of `CCOC(=O)O[C@@H](C)n1nnnc1-c1c(-c2ccc(C(=O)N(c3ncccc3C)[C@@H]3CCCNC3)cc2)cnn1C` [Example 5a, ethyl (S)-1-{5-[1-methyl-4-(4-{(3-methylpyridin-2-yl)[(3R)-piperidin-3-yl]carbamoyl}phenyl)-1H-pyrazol-5-yl]-1H-tetrazol-1-yl}ethyl carbonate], the “HHep CLint” value [1] is reported as 57.2 μL/min/mil and the IC50 (human PCSK9) is reported as greater than 20 µM.
With `CCOC(=O)O[C@@H](C)n1nnnc1-c1c(-c2ccc(C(=O)N(c3ncccc3Cl)[C@@H]3CCCNC3)nc2)cnn1C` [Example 10, ethyl (S)-1-{5-[4-(6-{(3-chloropyridin-2-yl)[(3R)-piperidin-3-yl]carbamoyl}pyridin-3-yl)-1-methyl-1H-pyrazol-5-yl]-1H-tetrazol-1-yl}ethyl carbonate] the “HHep CLint” value [1] was 11.8 μL/min/mil and the IC50 (human PCSK9) was greater than 20 µM.
With `CCOC(=O)O[C@@H](C)n1nnnc1-c1c(-c2ccc(C(=O)N(c3ncccc3C)[C@@H]3CCCNC3)nc2)cnn1C` [Example 9, ethyl (S)-1-{5-[1-methyl-4-(6-{(3-methylpyridin-2-yl)[(3R)-piperidin-3-yl]carbamoyl}pyridin-3-yl)-1H-pyrazol-5-yl]-1H-tetrazol-1-yl}ethyl carbonate] the “HHep CLint” value [1] was 7.0 μL/min/mil and the IC50 (human PCSK9) was greater than 20 µM.
For `CCOC(=O)O[C@@H](C)n1nnnc1-c1c(-c2ccc(C(=O)N(c3ncccc3Cl)[C@@H]3CCCNC3)cc2)cnn1C` [Example 6, ethyl (S)-1-{5-[1-methyl-4-(4-{(3-chloropyridin-2-yl)[(3R)-piperidin-3-yl]carbamoyl}phenyl)-1H-pyrazol-5-yl]-1H-tetrazol-1-yl}ethyl carbonate], the “HHep CLint” value [1] was 71.2 μL/min/mil and the IC50 (human PCSK9) was greater than 20 µM.
With `CCOC(=O)O[C@H](C)n1nnnc1-c1c(-c2ccc(C(=O)N(c3ncccc3C)[C@@H]3CCCNC3)cc2)cnn1C` [Example 5b, ethyl (R)-1-{5-[1-methyl-4-(4-{(3-methylpyridin-2-yl)[(3R)-piperidin-3-yl]carbamoyl}phenyl)-1H-pyrazol-5-yl]-1H-tetrazol-1-yl}ethyl carbonate] the “HHep CLint” value [1] was 85.0 μL/min/mil and the IC50 (human PCSK9) was greater than 20 µM.
With `CCOC(=O)O[C@H](C)n1nnnc1-c1c(-c2ccc(C(=O)N(c3ncccc3Cl)[C@@H]3CCCNC3)cc2F)cnn1C` [Example 11, ethyl (R)-1-{5-[4-(4-{(3-chloropyridin-2-yl)[(3R)-piperidin-3-yl]carbamoyl}-2-fluorophenyl)-1-methyl-1H-pyrazol-5-yl]-1H-tetrazol-1-yl}ethyl carbonate] the “HHep CLint” value [1] was greater than 170 μL/min/mil and the IC50 (human PCSK9) was 16.1 µM.
For `Cn1ncc(-c2ccc(C(=O)N(c3ncccc3Cl)[C@@H]3CCCNC3)cc2F)c1-c1nn[nH]n1` [Example 3, N-(3-chloropyridin-2-yl)-3-fluoro-4-[1-methyl-5-(2H-tetrazol-5-yl)-1H-pyrazol-4-yl]-N-[(3R)-piperidin-3-yl]benzamide], the IC50 (human PCSK9) was greater than 20 µM.
In the case of `CCOC(=O)O[C@@H](C)n1nnnc1-c1c(-c2ccc(C(=O)N(c3ncccc3Cl)[C@@H]3CCCNC3)cc2F)cnn1C` [Example 7, ethyl (S)-1-{5-[4-(4-{(3-chloropyridin-2-yl)[(3R)-piperidin-3-yl]carbamoyl}-2-fluorophenyl)-1-methyl-1H-pyrazol-5-yl]-1H-tetrazol-1-yl}ethyl carbonate], the “HHep CLint” value [1] is reported as 97.6 μL/min/mil and the IC50 (human PCSK9) is reported as greater than 20 µM.
